How the values were obtained:
[1] = spontaneous racemization of the hydantoin at a pH above 8; depends on substituent at the 5-position; cited from earlier work
[2] = Activity of DAPDH enzymes for reductive amination of 2-keto acids (NADPH decrease at 340 nm); format: biochemical
Description: The mutant DAPDH enzyme was assayed spectrophotometrically by monitoring the decrease in concentration of NADPH. The typical reductive amination reaction contained the following: 100 mM sodium carbonate/bicarbonate buffer, pH 9.0, 200 mM NH4Cl, 25 mM 2-keto acid, and 0.2 mM NADPH. The decrease in absorbance at 340 nm was monitored and an NADPH extinction coefficient of 6.22 mM^−1cm^−1 was used to correlate absorbance to concentration. Protein concentrations were determined via the Bradford method ^19 using bovine serum albumin as a protein standard.

Molecule: O=C1NC(=O)C(Cc2ccccc2)N1 (centres unmarked) [benzylhydantoin]
- rate of racemization τ1/2 [1]: 5 h

Molecule: CC(C)C1NC(=O)NC1=O (centres unmarked) [isopropylhydantoin]
- rate of racemization τ1/2 [1]: 56 h

Molecule: O=C1NC(=O)C(c2ccccc2)N1 (centres unmarked) [phenylhydantoin]
- rate of racemization τ1/2 [1]: 0.3 h

Molecule: tert-butylhydantoin
- rate of racemization τ1/2 [1]: 120 h

B1: wild-type diaminopimelate dehydrogenase enzyme from Corynebacterium glutamicum: wild-type diaminopimelate dehydrogenase from Corynebacterium glutamicum (ATTC #13032), SEQ ID NO. 2 (protein, listed as Corynebacterium glutamicum)
chain: MTNIRVAIVGYGNLGRSVEKLIAKQPDMDLVGIFSRRATLDTKTPVFDVADVDKHADDVDVLFLCMGSATDIPEQAPKFAQFACTVDTYDNHRDIPRHRQVMNEAATAAGNVALVSTGWDPGMFSINRVYAAAVLAEHQQHTFWGPGLSQGHSDALRRIPGVQKAVQYTLPSEDALEKARRGEAGDLTGKQTHKRQCFVVADAADHERIENDIRTMPDYFVGYEVEVNFIDEATFDSEHTGMPHGGHVITTGDTGGFNHTVEYILKLDRNPDFTASSQIAFGRAAHRMKQQGQSGAFTVLEVAPYLLSPENLDDLIARDV
- activity toward the reductive amination of 2-ketoacids to produce D-amino acids [2]: little or no activity

— US7550277B2, “D-amino acid dehydrogenase and method of making D-amino acids” (Codexis, Inc., priority 2005, dated 2009)
